In US20250388605A1, “HETEROBIFUNCTIONAL COMPOUNDS AND METHODS OF TREATING DISEASE” (Halda Therapeutics OpCo, Inc., priority 2022, published 2025) one finds GI50 and Kd data, which are given here for 8 molecules.

Assay [1] has as its system T-Rex 293 cell line SC3 cells having increased expression of androgen receptor protein due to exposure to doxycycline. In words: Cellular growth inhibition, T-Rex 293 SC3 cells with doxycycline (increased androgen receptor expression), CellTiter-Glo. Format: cell-based. To be noted: T-Rex 293 SC3 cells with 10 ng/mL doxycycline (increased androgen receptor expression), 72 hours, CellTiter-Glo 2.0. An outline of the steps:
(§1)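 Growth inhibition is measured in an inducible AR-expressing T-Rex 293 clone, SC3, cultured with or without 10 ng/mL doxycycline in hormone-depleted medium. Test compounds are applied for 72 hours. GI50 values derive from CellTiter-Glo 2.0 signal fitted by four-parameter regression.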
(In general: Cellular ATP, detected with luciferase, serves as a proxy for viable cell number.)

The next assay concerns VCaP cells. The assay can be described thus: Cellular growth inhibition assay for VCaP cells, CellTiter-Glo. Format: cell-based, human. The conditions noted are these: 72 hours. The essentials: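 GI50 values come from four-parameter curve fits of luminescence data normalized to a zero baseline. Compound, in medium with 0.5% DMSO, was added one day after plating and left for 72 h before CellTiter-Glo 2.0 addition.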

A further assay deals with T1, BRD4-BD2 (Homo sapiens, UniProt O60885).
T1 construct: made in house; host or cells: T7 phage grown in an E. coli host derived from the BL21 strain
In words: Binding affinity to BRD4-BD2 (bromoKdELECT assay). The conditions noted are these: 11-point 3-fold dilution series. The method, then:
(§2) Compounds were tested using a bromoKdELECT assay. T7 phage strains displaying bromodomains were grown in parallel in 24-well blocks in an E. coli host derived from the BL21 strain. E. coli were grown to log-phase and infected with T7 phage from a frozen stock (multiplicity of infection=0.4) and incubated with shaking at 32° C. until lysis (90-150 minutes). The lysates were centrifuged (5,000×g) and filtered ([…]) to remove cell debris. Streptavidin-coated magnetic beads were treated with biotinylated small molecule or acetylated peptide ligands for 30 minutes at room temperature to generate affinity resins for bromodomain assays. The liganded beads were blocked with excess biotin and washed with blocking buffer (SeaBlock (Pierce), 1% BSA, 0.05% Tween 20, 1 mM DTT) to remove unbound ligand and to reduce nonspecific phage binding. Binding reactions were assembled by combining bromodomains, liganded affinity beads, and test compounds in 1× binding buffer (17% SeaBlock, 0.33×PBS, 0.04% Tween 20, 0.02% BSA, 0.004% Sodium azide, 7.4 mM DTT). Test compounds were prepared as 1000× stocks in 100% DMSO. Kds were determined using an 11-point 3-fold compound dilution series with one DMSO control point. All compounds for Kd measurements are distributed by acoustic transfer (non-contact dispensing) in 100% DMSO. The compounds were then diluted directly into the assays such that the final concentration of DMSO was 0.09%. All reactions performed in polypropylene 384-well plates. Each was a final volume of 0.02 ml. The assay plates were incubated at room temperature with shaking for 1 hour and the affinity beads were washed with wash buffer (1×PBS, 0.05% Tween 20). The beads were then resuspended in elution buffer (1×PBS, 0.05% Tween 20, 2 μM non-biotinylated affinity ligand) and incubated at room temperature with shaking for 30 minutes. The bromodomain concentration in the eluates was measured by qPCR.

Assay [2] has as its system T-Rex 293 cell line SC3 cells lacking increased expression of androgen receptor protein. In words: Cellular growth inhibition, T-Rex 293 SC3 cells without doxycycline (no increased androgen receptor expression), CellTiter-Glo. Type of assay: cell-based. To be noted: T-Rex 293 SC3 cells not exposed to doxycycline (no increased androgen receptor expression), 72 hours. The essentials:
as §1

The target of another assay is T2, BRD4-BD1 (Homo sapiens, UniProt O60885).
T2 construct: made in house; host or cells: T7 phage grown in an E. coli host derived from the BL21 strain
In words: Binding affinity to BRD4-BD1 (bromoKdELECT assay). To be noted: 11-point 3-fold dilution series. How it is done: as §2, with “[…]” for “μM”

As usually defined, the GI50 is the concentration giving 50% growth inhibition. High values mean lower sensitivity of the cells, low ones greater sensitivity of the cells. In general, Kd refers to the equilibrium constant for the complex coming apart.

Where only a bound is given, the exact number is not on record here.

Turning to `CN(c1ccc(Oc2cccc(OCCOC3CCN(c4ncc(C(=O)N[C@H]5C(C)(C)[C@H](Oc6ccc(C#N)c(Cl)c6)C5(C)C)cn4)CC3)c2)c(-c2cn(C)c(=O)c3[nH]ccc23)c1)S(C)(=O)=O` [Compound I-51], the GI50 (in assay [1]; in the assay with VCaP cells (Homo sapiens); in assay [2]) was < 500 nM throughout. For the same molecule, the equilibrium dissociation constant (Kd) is 500 to 2500 nM at BRD4-BD2 and > 2500 nM at BRD4-BD1.
For `CCS(=O)(=O)Nc1ccc(Oc2ccc(CCOC3CCN(c4ncc(C(=O)N[C@H]5C(C)(C)[C@H](Oc6ccc(C#N)c(Cl)c6)C5(C)C)cn4)CC3)cc2)c(-c2cn(C)c(=O)c3[nH]ccc23)c1` [Compound I-151], the GI50 (in assay [1]; with VCaP cells (Homo sapiens); in assay [2]) was < 500 nM in each case. Further, the values for the Kd at BRD4-BD2 and at BRD4-BD1 were < 50 nM and 50 to 500 nM, respectively.
As to `CCS(=O)(=O)c1ccc(Oc2cccc(OCCCC3CCN(c4ncc(C(=O)N[C@H]5C(C)(C)[C@H](Oc6ccc(C#N)c(Cl)c6)C5(C)C)cn4)CC3)c2F)c(-c2cn(C)c(=O)c3[nH]ccc23)c1` [Compound I-140], the GI50 in assay [1] is < 500 nM; with VCaP cells (Homo sapiens) it was 1500 to 3000 nM; in assay [2] it was < 500 nM. Besides, the Kd on BRD4-BD2 and on BRD4-BD1 was > 2500 nM in each case.
Consider `CCS(=O)(=O)Nc1ccc(OCC(OCCOC2CCN(c3ncc(C(=O)N[C@H]4C(C)(C)[C@H](Oc5ccc(C#N)c(Cl)c5)C4(C)C)cn3)CC2)C2CC2)c(-c2cn(C)c(=O)c3[nH]ccc23)c1` (stereo partly shown) [Compound I-68, N-((1r, 3r)-3-(3-chloro-4-cyanophenoxy)-2,2,4,4-tetramethylcyclobutyl)-2-(4-(2-(1-cyclopropyl-2-(4-(ethylsulfonamido)-2-(6-methyl-7-oxo-6,7-dihydro-1H-pyrrolo[2,3-c]pyridin-4-yl)phenoxy)ethoxy)ethoxy)piperidin-1-yl)pyrimidine-5-carboxamide], for which the GI50 was < 500 nM in assay [1], < 500 nM in the assay on VCaP cells (Homo sapiens) and > 3000 nM in assay [2]. The Kd on BRD4-BD2 and on BRD4-BD1 was 50 to 500 nM throughout.
As for `CCS(=O)(=O)Nc1ccc(Oc2cccc(OCCOC3CCN(c4ncc(C(=O)N[C@H]5C(C)(C)[C@H](Oc6ccc(C#N)c(Cl)c6)C5(C)C)cn4)CC3)c2F)c(-c2cn(C)c(=O)c3[nH]ccc23)c1` [Compound I-64], the 50% growth inhibitory concentration (GI50) (in assay [1]; in the assay with VCaP cells (Homo sapiens); in assay [2]) was < 500 nM throughout. In addition, the Kd at BRD4-BD2 was < 50 nM; on BRD4-BD1, > 2500 nM.
`CCS(=O)(=O)Cc1ccc(Oc2cccc(CCCN3CCN(c4ncc(C(=O)N[C@H]5C(C)(C)[C@H](Oc6ccc(C#N)c(Cl)c6)C5(C)C)cn4)CC3)c2F)c(-c2cn(C)c(=O)c3[nH]ccc23)c1` [Compound I-144]: the GI50 (in assay [1]; in the assay on VCaP cells; in assay [2]) was < 500 nM throughout. Further, the values for the dissociation constant Kd at BRD4-BD2 and on BRD4-BD1 were < 50 nM and 50 to 500 nM, respectively.
Take `CCS(=O)(=O)Nc1ccc(OC(COCCOC2CCN(c3ncc(C(=O)N[C@H]4C(C)(C)[C@H](Oc5ccc(C#N)c(Cl)c5)C4(C)C)cn3)CC2)C2CC2)c(-c2cn(C)c(=O)c3[nH]ccc23)c1` (stereo partly shown) [Compound I-67]: the GI50 (in assay [1]; with VCaP cells (Homo sapiens); in assay [2]) was < 500 nM each time. Moreover, the Kd on BRD4-BD2 and on BRD4-BD1 was 50 to 500 nM in each case.
As to `Cn1cc(-c2cc(NS(=O)(=O)CC(F)(F)F)ccc2Oc2cccc(OCCOC3CCN(c4ncc(C(=O)N[C@H]5C(C)(C)[C@H](Oc6ccc(C#N)c(Cl)c6)C5(C)C)cn4)CC3)c2F)c2cc[nH]c2c1=O` [Compound I-153], the 50% growth inhibitory concentration (GI50) (in assay [1]; with VCaP cells (Homo sapiens); in assay [2]) was < 500 nM each time. For the same molecule, the Kd on BRD4-BD2 was < 50 nM; at BRD4-BD1 it was 500 to 2500 nM.
